Columns and labels:
[1] = fluorescein alone; cited from earlier work
[2] = Water solubility of taxol phosphate analog / arginine heptamer salt versus taxol
Method: This water soluble analog of taxol was assayed for biological activity using a standard cytotoxicity assay.

[3] = cited from earlier work

| solubility in water [2] | Compound | solubility in water (general statement) [1] | water solubility [3] |
| --- | --- | --- | --- |
| – | O=C1OC2(c3ccc(O)cc3Oc3cc(O)ccc32)c2ccccc21 [fluorescein] | poorly soluble | – |
| very limited solubility | CC(=O)O[C@H]1C(=O)[C@@]2(C)[C@H]([C@H](OC(=O)c3ccccc3)[C@]3(O)C[C@H](OC(=O)[C@H](O)[C@@H](NC(=O)c4ccccc4)c4ccccc4)C(C)=C1C3(C)C)[C@]1(OC(C)=O)CO[C@@H]1C[C@@H]2O [taxol, paclitaxel] | – | ≈ 0.25 μg/mL |
| – | CC(=O)O[C@@]12CO[C@@H]1C[C@H](O)[C@@]1(C)C(=O)[C@H](O)C3=C(C)[C@@H](OC(=O)[C@H](O)[C@@H](NC(=O)OC(C)(C)C)c4ccccc4)C[C@@](O)([C@@H](OC(=O)c4ccccc4)[C@H]21)C3(C)C [taxotere] | – | 6 to 7 µg/mL |

Source: US20020009491A1, “Compositions and methods for enhancing drug delivery across biological membranes and tissues” (priority 2000, published 2002)
